In the NIST ThermoML archive (doi:10.1021/je060142u) one finds activity coefficient data, which are given here for 17 compounds.

A short description of this data set: activity coefficient (dimensionless); of the first substance listed, at infinite dilution; xn = mol fraction of the nth substance listed. The conditions noted are these: 101 kPa, Liquid, Chromatography, x1 = 0.

Molecules are shown by their SMILES. Numbers after ± are expanded uncertainties.

On to `C=Cc1ccccc1` [styrene] + CCCCn1cc[n+](C)c1.F[B-](F)(F)F, for which the activity coefficient runs as follows: (303.15 K) 2.29 ± 0.2; (313.15 K) 2.29 ± 0.2; (323.15 K) 2.34 ± 0.2; (333.15 K) 2.41 ± 0.21; (343.15 K) 2.48 ± 0.21.
`CCCCCCC` [heptane] + CCCCn1cc[n+](C)c1.F[B-](F)(F)F: the activity coefficient is 92.5 ± 8 (303.15 K); 86.7 ± 7.5 (313.15 K); 81.7 ± 7.1 (323.15 K); 78.9 ± 6.8 (333.15 K); 71.5 ± 6.2 (343.15 K).
`CCCCCCCC` [octane] + CCCCn1cc[n+](C)c1.F[B-](F)(F)F: the activity coefficient reads like this: (303.15 K) 139 ± 12; (313.15 K) 136 ± 12; (323.15 K) 127 ± 11; (333.15 K) 119 ± 10; (343.15 K) 111 ± 9.6.
For `CCCCCCCCC` [nonane] + CCCCn1cc[n+](C)c1.F[B-](F)(F)F the same measures were 224 ± 20, 193 ± 17, 187 ± 16, 179 ± 16 and 170 ± 15.
For the compound `CC(C)CC(C)(C)C` [2,2,4-trimethylpentane] + CCCCn1cc[n+](C)c1.F[B-](F)(F)F, the activity coefficient reads like this: (303.15 K) 92.7 ± 8; (313.15 K) 88.6 ± 7.7; (323.15 K) 83.8 ± 7.3; (333.15 K) 79.5 ± 6.9; (343.15 K) 75.5 ± 6.5.
The corresponding values for `CCCCCCCCCC` [decane] + CCCCn1cc[n+](C)c1.F[B-](F)(F)F are 414 ± 36, 335 ± 29, 320 ± 28, 296 ± 26 and 279 ± 24.
Take `CCc1ccccc1` [ethylbenzene] + CCCCn1cc[n+](C)c1.F[B-](F)(F)F: the activity coefficient reads like this: (303.15 K) 5.61 ± 0.48; (313.15 K) 5.54 ± 0.48; (323.15 K) 5.49 ± 0.47; (333.15 K) 5.42 ± 0.47; (343.15 K) 5.37 ± 0.46.
For `Cc1ccccc1` [toluene] + CCCCn1cc[n+](C)c1.F[B-](F)(F)F the same measures were 2.91 ± 0.25, 2.94 ± 0.25, 2.95 ± 0.25, 2.99 ± 0.26 and 3.03 ± 0.26.
The corresponding values for `c1ccccc1` [benzene] + CCCCn1cc[n+](C)c1.F[B-](F)(F)F are 1.74 ± 0.15, 1.76 ± 0.15, 1.77 ± 0.15, 1.8 ± 0.15 and 1.83 ± 0.16.
Regarding `CC1CCCCC1` [methylcyclohexane] + CCCCn1cc[n+](C)c1.F[B-](F)(F)F, the activity coefficient is 48.7 ± 4.2 (303.15 K); 45.6 ± 3.9 (313.15 K); 42.4 ± 3.7 (323.15 K); 39.8 ± 3.5 (333.15 K); 37.3 ± 3.2 (343.15 K).
For `CCCCC` [pentane] + CCCCn1cc[n+](C)c1.F[B-](F)(F)F, the activity coefficient is, setting by setting: (303.15 K) 40.7 ± 3.5; (313.15 K) 39.7 ± 3.4; (323.15 K) 38.1 ± 3.3; (333.15 K) 36.3 ± 3.1; (343.15 K) 35.8 ± 3.1.
For `C1=CCCCC1` [cyclohexene] + CCCCn1cc[n+](C)c1.F[B-](F)(F)F the same measures were 14.1 ± 1.2, 13.5 ± 1.2, 12.9 ± 1.1, 12.4 ± 1.1 and 11.9 ± 1.
Consider `Cc1cccc(C)c1` [1,3-dimethylbenzene] + CCCCn1cc[n+](C)c1.F[B-](F)(F)F, for which the activity coefficient runs as follows: (303.15 K) 5.25 ± 0.45; (313.15 K) 5.24 ± 0.45; (323.15 K) 5.23 ± 0.45; (333.15 K) 5.23 ± 0.45; (343.15 K) 5.22 ± 0.45.
As to `Cc1ccc(C)cc1` [1,4-dimethylbenzene] + CCCCn1cc[n+](C)c1.F[B-](F)(F)F, the activity coefficient (303.15 K) was 4.97 ± 0.43; the activity coefficient (313.15 K) was found to be 5.15 ± 0.44; the activity coefficient (323.15 K) was determined as 5.28 ± 0.46; the activity coefficient (333.15 K) was found to be 5.33 ± 0.46; the activity coefficient (343.15 K) stood at 5.47 ± 0.47.
On to `C1CCCCC1` [cyclohexane] + CCCCn1cc[n+](C)c1.F[B-](F)(F)F, for which the activity coefficient came to 32.4 ± 2.8 (303.15 K); 30.2 ± 2.6 (313.15 K); 28.3 ± 2.5 (323.15 K); 26.9 ± 2.3 (333.15 K); 24.6 ± 2.1 (343.15 K).
The corresponding values for `CCCCCC` [hexane] + CCCCn1cc[n+](C)c1.F[B-](F)(F)F are 60.8 ± 5.3, 57.5 ± 5, 54.2 ± 4.7, 50.5 ± 4.4 and 47 ± 4.1.
With `Cc1ccccc1C` [1,2-dimethylbenzene] + CCCCn1cc[n+](C)c1.F[B-](F)(F)F, the activity coefficient is, setting by setting: (303.15 K) 4.2 ± 0.36; (313.15 K) 4.18 ± 0.36; (323.15 K) 4.16 ± 0.36; (333.15 K) 4.16 ± 0.36; (343.15 K) 4.14 ± 0.36.
